Each structure is given as a SMILES string.

In experiment [1] the test system is N87 (human gastric carcinoma derived from metastatic liver site). Nature of the experiment: Cytotoxicity assay for payloads (MTS), N87 cells. The format is cell-based. The conditions noted are these: Homo sapiens, 96 h; N87 cells, incubated with compounds for four days, MTS absorbance 490 nm; read-out: N87 IC50. The method, boiled down: (§1)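 Cells in RPMI 1640 with 10% FBS exposed to compounds for four days at 10 concentrations in duplicate. Viability read by MTS absorbance at 490 nm after 1.5 h, as % of untreated controls; IC50 from four-parameter logistic fit.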

For a further experiment, the system named is HL60 (leukemia). Nature of the experiment: Cytotoxicity assay for payloads (MTS), HL-60 cells. The format is cell-based. The conditions noted are these: Homo sapiens, 96 h, incubated with compounds for four days, MTS absorbance 490 nm. Summed up:
as §1

Consider `O=C1C=C2N(C(=O)c3ccc(C(=O)N4C[C@H]5C[C@@]56C4=CC(=O)c4ccccc46)s3)C[C@H]3C[C@@]23c2ccccc21` [Compound 136, (1aS,9bR,1a′S,9b′R)-3,3′-(thiene-2,5-diyldicarbonyl)bis(1,1a,2,3-tetrahydro-5H-benzo[e]cyclopropa[c]indol-5-one)], for which the values for the half-maximal inhibitory concentration (IC50) (in experiment [1]; with HL60 (leukemia)) were 3 pM and 5 pM, respectively.

As to `CC(=O)Oc1cc2c(c3c(C)c[nH]c13)[C@H](CCl)CN2C(=O)C12CCC(C(=O)N3C[C@@H](CCl)c4c3cc(OC(C)=O)c3[nH]cc(C)c43)(CC1)C2` [Compound 88, bicyclo[2.2.1]heptane-1,4-diylbis[carbonyl(1S)-1-(chloromethyl)-8-methyl-1,6-dihydropyrrolo[3,2-e]indole-3,5(2H)-diyl]diacetate], the figures for the IC50 (in experiment [1]; with HL60 (leukemia)) were 502 pM and 22 pM, respectively.

On to `CC(=O)Oc1cc2c(c3ccccc13)[C@H](CCl)CN2C(=O)C12CCC(C(=O)N3C[C@@H](CCl)c4c3cc(OC(C)=O)c3ccccc43)(C1)C2` [Compound 82, (1S,4S)-bicyclo[2.1.1]hexane-1,4-diylbis[carbonyl(1S)-1-(chloromethyl)-1,2-dihydro-3H-benzo[e]indole-3,5-diyl]diacetate], for which the IC50 in experiment [1] came out at 3240 pM; in the experiment with HL60 (leukemia), 359 pM.

Consider `Nc1ccc(C(CC(=O)N2C[C@@H](CCl)c3c2cc(O)c2ccccc32)CC(=O)N2C[C@@H](CCl)c3c2cc(O)c2ccccc32)cc1` [Compound 48, 3-(4-Amino-phenyl)-1,5-bis-((S)-1-chloromethyl-5-hydroxy-1,2-dihydro-benzo[e]indol-3-yl)-pentane-1,5-dione], for which the IC50 in experiment [1] was determined as 12200 pM; in the experiment on HL60 (leukemia), 1750 pM.

One may read the IC50 as the concentration needed to halve the response being measured.

The values above are taken from patent publication US10086085B2, “Bifunctional cytotoxic agents” (priority 2014, dated 2018).
